Data reported in publication PMC9986241 (Signal Transduction and Targeted Therapy, 2023).

Key:
Axl(h) = target: T1, Axl(h) (Homo sapiens, UniProt P30530); experiment: KinaseProfiler enzyme profiling; assay type: biochemical
T1 construct: purchased Eurofins KinaseProfiler
Experimental: (§1) Enzyme profiling services were provided by KinaseProfiler™ (Eurofin, Brussels, Belgium). The concentration of erianin was 100 nM, and total 70 kinases were tested in this in vitro screening and profiling services (2 repetitions). For more details, refer to the manufacturer’s instructions (www.eurofinsdiscoveryservices.com).

MST3(h) = target: T2, MST3(h) (Homo sapiens, UniProt Q9Y6E0); experiment: KinaseProfiler enzyme profiling; assay type: biochemical
T2 construct: purchased Eurofins KinaseProfiler
Experimental: as §1

CaMKIIβ(h) = target: T3, CaMKIIβ(h) (Homo sapiens, UniProt Q13554); experiment: KinaseProfiler enzyme profiling; assay type: biochemical
T3 construct: purchased Eurofins KinaseProfiler
Experimental: as §1

CaMKIV(h) = target: T4, CaMKIV(h) (Homo sapiens, UniProt Q16566); experiment: KinaseProfiler enzyme profiling; assay type: biochemical
T4 construct: purchased Eurofins KinaseProfiler
Experimental: as §1

EGFR(L861Q)(h) = target: T5, EGFR(L861Q)(h) (Homo sapiens, UniProt P00533, L861Q); experiment: KinaseProfiler enzyme profiling; assay type: biochemical
T5 construct: purchased Eurofins KinaseProfiler
Experimental: as §1

CDK1/cyclinB(h) = target: T6, CDK1/cyclinB(h) (Homo sapiens, UniProt P06493); experiment: KinaseProfiler enzyme profiling; assay type: biochemical
T6 construct: purchased Eurofins KinaseProfiler
Experimental: as §1

MSK2(h) = target: T7, MSK2(h) (Homo sapiens, UniProt O75676); experiment: KinaseProfiler enzyme profiling; assay type: biochemical
T7 construct: purchased Eurofins KinaseProfiler
Experimental: as §1

MSK1(h) = target: T8, MSK1(h) (Homo sapiens, UniProt O75582); experiment: KinaseProfiler enzyme profiling; assay type: biochemical
T8 construct: purchased Eurofins KinaseProfiler
Experimental: as §1

c-RAF(h) = target: T9, c-RAF(h) (Homo sapiens, UniProt P04049); experiment: KinaseProfiler enzyme profiling; assay type: biochemical
T9 construct: purchased Eurofins KinaseProfiler
Experimental: as §1

cSRC(h) = target: T10, cSRC(h) (Homo sapiens, UniProt P12931); experiment: KinaseProfiler enzyme profiling; assay type: biochemical
T10 construct: purchased Eurofins KinaseProfiler
Experimental: as §1

GSK3β(h) = target: T11, GSK3β(h) (Homo sapiens, UniProt P49841); experiment: KinaseProfiler enzyme profiling; assay type: biochemical
T11 construct: purchased Eurofins KinaseProfiler
Experimental: as §1

PDK1(h) = target: T12, PDK1(h) (Homo sapiens, UniProt O15530); experiment: KinaseProfiler enzyme profiling; assay type: biochemical
T12 construct: purchased Eurofins KinaseProfiler
Experimental: as §1

PKA(h) = target: T13, PKA(h) (Homo sapiens, UniProt P17612); experiment: KinaseProfiler enzyme profiling; assay type: biochemical
T13 construct: purchased Eurofins KinaseProfiler
Experimental: as §1

B-Raf(V599E)(h) = target: T14, B-Raf(V599E)(h) (Homo sapiens, UniProt P15056, V600E); experiment: KinaseProfiler enzyme profiling; assay type: biochemical
T14 construct: purchased Eurofins KinaseProfiler
Experimental: as §1

[1] = system: colorectal cancer PDX harboring KRAS mutation; experiment: Patient-derived xenograft (PDX); set-up: species or system NOD-SCID mice; settings: mouse, in vivo
Excerpt: Figure S7. […] Tumor volume of (c). e Tumor weight of (c). f, h Changes of body weight after drug administration in melanoma and CRC PDX model. g, i HE staining of liver and spleen in melanoma PDX model. Scale bars: 200 μm.

MEK1 = MEK1 (Homo sapiens, UniProt Q02750); experiment: Luminescent ADP detection (ADP-glo kinase) assay; assay type: biochemical; settings: 1–100 nM
Experimental: (§2) After incubated with 100–400 μM ATP in kinase assay buffer for 30 min, the phosphorylation of the substrate/total substrate protein was detected by western blotting. For ADP-glo kinase assay, unconsumed ATP was depleted with the addition of ADP-Glo™. Followed by kinase detection reagent to convert ADP to ATP, consumption of ATP was detected to evaluate the kinase activity. For more details, refer to the manufacturer’s instructions of ADP-Glo™ Kinase Assay.

CRAF = target: T15, CRAF (Homo sapiens, UniProt P04049, Y340E/Y341E); experiment: Luminescent ADP detection (ADP-glo kinase) assay; assay type: biochemical; settings: 1–100 nM
T15 construct: purchased Signal Chem R01-13G
Experimental: as §2

MEK2 = MEK2 (Homo sapiens, UniProt P36507); experiment: Luminescent ADP detection (ADP-glo kinase) assay; assay type: biochemical; settings: 1–100 nM
Experimental: as §2

[2] = system: MAPK signaling pathway (phospho-CRAF, phospho-MEK1/2, phospho-ERK1/2); experiment: Western blotting of MAPK signaling pathway in cells; settings: both BRAF V600E and RAS mutant cell lines, 24 h
Excerpt: Data were shown as means ± S.D. of three independent experiments. The asterisks (*p < 0.05, **p < 0.01, ***p < 0.001) indicate a significant difference in the expression of phosphorylation of ERK1 or ERK2 vs total ERK1 or ERK2 in control and erianin-treated group. g The luminescent ADP detection assay was developed to detect the luminescence signal of ATP-to-ADP using the same concentration kinases and substrates described in above kinase assay.
Protein was quantified using a BCA assay kit and then western blotting was conducted.

[3] = system: SK-MEL-2, A375, SK-MEL-28, and HCT 116; experiment: Combination index assay; assay type: cell-based, human; settings: erianin with vemurafenib; most of the CI; BRAF and RAS mutant cell lines
Experimental: (§3) The synergism and antagonism (CI value) were determined and analyzed using CompuSyn 1.0.
as §3

PAK3(h) = target: T16, PAK3(h) (Homo sapiens, UniProt O75914); experiment: KinaseProfiler enzyme profiling; assay type: biochemical
T16 construct: purchased Eurofins KinaseProfiler
Experimental: as §1

PDGFRα(h) = target: T17, PDGFRα(h) (Homo sapiens, UniProt P16234); experiment: KinaseProfiler enzyme profiling; assay type: biochemical
T17 construct: purchased Eurofins KinaseProfiler
Experimental: as §1

AMPKα2(h) = target: T18, AMPKα2(h) (Homo sapiens, UniProt P54646); experiment: KinaseProfiler enzyme profiling; assay type: biochemical
T18 construct: purchased Eurofins KinaseProfiler
Experimental: as §1

ROCK-II(h) = target: T19, ROCK-II(h) (Homo sapiens, UniProt O75116); experiment: KinaseProfiler enzyme profiling; assay type: biochemical
T19 construct: purchased Eurofins KinaseProfiler
Experimental: as §1

JNK2α2(h) = target: T20, JNK2α2(h) (Homo sapiens, UniProt P45984); experiment: KinaseProfiler enzyme profiling; assay type: biochemical
T20 construct: purchased Eurofins KinaseProfiler
Experimental: as §1

FAK(h) = target: T21, FAK(h) (Homo sapiens, UniProt Q05397); experiment: KinaseProfiler enzyme profiling; assay type: biochemical
T21 construct: purchased Eurofins KinaseProfiler
Experimental: as §1

SGK(h) = target: T22, SGK(h) (Homo sapiens, UniProt O00141); experiment: KinaseProfiler enzyme profiling; assay type: biochemical; settings: 100 nM
T22 construct: purchased Eurofins KinaseProfiler
Experimental: as §1

ROCK-I(h) = target: T23, ROCK-I(h) (Homo sapiens, UniProt Q13464); experiment: KinaseProfiler enzyme profiling; assay type: biochemical
T23 construct: purchased Eurofins KinaseProfiler
Experimental: as §1

PKCα(h) = target: T24, PKCα(h) (Homo sapiens, UniProt P17252); experiment: KinaseProfiler enzyme profiling; assay type: biochemical
T24 construct: purchased Eurofins KinaseProfiler
Experimental: as §1

JAK2(h) = target: T25, JAK2(h) (Homo sapiens, UniProt O60674); experiment: KinaseProfiler enzyme profiling; assay type: biochemical
T25 construct: purchased Eurofins KinaseProfiler
Experimental: as §1

CaMKIIα(h) = target: T26, CaMKIIα(h) (Homo sapiens, UniProt Q9UQM7); experiment: KinaseProfiler enzyme profiling; assay type: biochemical; settings: 100 nM
T26 construct: purchased Eurofins KinaseProfiler
Experimental: as §1

ATM(h) = target: T27, ATM(h) (Homo sapiens, UniProt Q13315); experiment: KinaseProfiler enzyme profiling; assay type: biochemical
T27 construct: purchased Eurofins KinaseProfiler
Experimental: as §1

CDK2/cyclinE(h) = target: T28, CDK2/cyclinE(h) (Homo sapiens, UniProt P24941); experiment: KinaseProfiler enzyme profiling; assay type: biochemical
T28 construct: purchased Eurofins KinaseProfiler
Experimental: as §1

ErbB2(h) = target: T29, ErbB2(h) (Homo sapiens, UniProt P04626); experiment: KinaseProfiler enzyme profiling; assay type: biochemical
T29 construct: purchased Eurofins KinaseProfiler
Experimental: as §1

TAO2(h) = target: T30, TAO2(h) (Homo sapiens, UniProt Q9UL54); experiment: KinaseProfiler enzyme profiling; assay type: biochemical
T30 construct: purchased Eurofins KinaseProfiler
Experimental: as §1

T27 sequence (Q13315 whole entry): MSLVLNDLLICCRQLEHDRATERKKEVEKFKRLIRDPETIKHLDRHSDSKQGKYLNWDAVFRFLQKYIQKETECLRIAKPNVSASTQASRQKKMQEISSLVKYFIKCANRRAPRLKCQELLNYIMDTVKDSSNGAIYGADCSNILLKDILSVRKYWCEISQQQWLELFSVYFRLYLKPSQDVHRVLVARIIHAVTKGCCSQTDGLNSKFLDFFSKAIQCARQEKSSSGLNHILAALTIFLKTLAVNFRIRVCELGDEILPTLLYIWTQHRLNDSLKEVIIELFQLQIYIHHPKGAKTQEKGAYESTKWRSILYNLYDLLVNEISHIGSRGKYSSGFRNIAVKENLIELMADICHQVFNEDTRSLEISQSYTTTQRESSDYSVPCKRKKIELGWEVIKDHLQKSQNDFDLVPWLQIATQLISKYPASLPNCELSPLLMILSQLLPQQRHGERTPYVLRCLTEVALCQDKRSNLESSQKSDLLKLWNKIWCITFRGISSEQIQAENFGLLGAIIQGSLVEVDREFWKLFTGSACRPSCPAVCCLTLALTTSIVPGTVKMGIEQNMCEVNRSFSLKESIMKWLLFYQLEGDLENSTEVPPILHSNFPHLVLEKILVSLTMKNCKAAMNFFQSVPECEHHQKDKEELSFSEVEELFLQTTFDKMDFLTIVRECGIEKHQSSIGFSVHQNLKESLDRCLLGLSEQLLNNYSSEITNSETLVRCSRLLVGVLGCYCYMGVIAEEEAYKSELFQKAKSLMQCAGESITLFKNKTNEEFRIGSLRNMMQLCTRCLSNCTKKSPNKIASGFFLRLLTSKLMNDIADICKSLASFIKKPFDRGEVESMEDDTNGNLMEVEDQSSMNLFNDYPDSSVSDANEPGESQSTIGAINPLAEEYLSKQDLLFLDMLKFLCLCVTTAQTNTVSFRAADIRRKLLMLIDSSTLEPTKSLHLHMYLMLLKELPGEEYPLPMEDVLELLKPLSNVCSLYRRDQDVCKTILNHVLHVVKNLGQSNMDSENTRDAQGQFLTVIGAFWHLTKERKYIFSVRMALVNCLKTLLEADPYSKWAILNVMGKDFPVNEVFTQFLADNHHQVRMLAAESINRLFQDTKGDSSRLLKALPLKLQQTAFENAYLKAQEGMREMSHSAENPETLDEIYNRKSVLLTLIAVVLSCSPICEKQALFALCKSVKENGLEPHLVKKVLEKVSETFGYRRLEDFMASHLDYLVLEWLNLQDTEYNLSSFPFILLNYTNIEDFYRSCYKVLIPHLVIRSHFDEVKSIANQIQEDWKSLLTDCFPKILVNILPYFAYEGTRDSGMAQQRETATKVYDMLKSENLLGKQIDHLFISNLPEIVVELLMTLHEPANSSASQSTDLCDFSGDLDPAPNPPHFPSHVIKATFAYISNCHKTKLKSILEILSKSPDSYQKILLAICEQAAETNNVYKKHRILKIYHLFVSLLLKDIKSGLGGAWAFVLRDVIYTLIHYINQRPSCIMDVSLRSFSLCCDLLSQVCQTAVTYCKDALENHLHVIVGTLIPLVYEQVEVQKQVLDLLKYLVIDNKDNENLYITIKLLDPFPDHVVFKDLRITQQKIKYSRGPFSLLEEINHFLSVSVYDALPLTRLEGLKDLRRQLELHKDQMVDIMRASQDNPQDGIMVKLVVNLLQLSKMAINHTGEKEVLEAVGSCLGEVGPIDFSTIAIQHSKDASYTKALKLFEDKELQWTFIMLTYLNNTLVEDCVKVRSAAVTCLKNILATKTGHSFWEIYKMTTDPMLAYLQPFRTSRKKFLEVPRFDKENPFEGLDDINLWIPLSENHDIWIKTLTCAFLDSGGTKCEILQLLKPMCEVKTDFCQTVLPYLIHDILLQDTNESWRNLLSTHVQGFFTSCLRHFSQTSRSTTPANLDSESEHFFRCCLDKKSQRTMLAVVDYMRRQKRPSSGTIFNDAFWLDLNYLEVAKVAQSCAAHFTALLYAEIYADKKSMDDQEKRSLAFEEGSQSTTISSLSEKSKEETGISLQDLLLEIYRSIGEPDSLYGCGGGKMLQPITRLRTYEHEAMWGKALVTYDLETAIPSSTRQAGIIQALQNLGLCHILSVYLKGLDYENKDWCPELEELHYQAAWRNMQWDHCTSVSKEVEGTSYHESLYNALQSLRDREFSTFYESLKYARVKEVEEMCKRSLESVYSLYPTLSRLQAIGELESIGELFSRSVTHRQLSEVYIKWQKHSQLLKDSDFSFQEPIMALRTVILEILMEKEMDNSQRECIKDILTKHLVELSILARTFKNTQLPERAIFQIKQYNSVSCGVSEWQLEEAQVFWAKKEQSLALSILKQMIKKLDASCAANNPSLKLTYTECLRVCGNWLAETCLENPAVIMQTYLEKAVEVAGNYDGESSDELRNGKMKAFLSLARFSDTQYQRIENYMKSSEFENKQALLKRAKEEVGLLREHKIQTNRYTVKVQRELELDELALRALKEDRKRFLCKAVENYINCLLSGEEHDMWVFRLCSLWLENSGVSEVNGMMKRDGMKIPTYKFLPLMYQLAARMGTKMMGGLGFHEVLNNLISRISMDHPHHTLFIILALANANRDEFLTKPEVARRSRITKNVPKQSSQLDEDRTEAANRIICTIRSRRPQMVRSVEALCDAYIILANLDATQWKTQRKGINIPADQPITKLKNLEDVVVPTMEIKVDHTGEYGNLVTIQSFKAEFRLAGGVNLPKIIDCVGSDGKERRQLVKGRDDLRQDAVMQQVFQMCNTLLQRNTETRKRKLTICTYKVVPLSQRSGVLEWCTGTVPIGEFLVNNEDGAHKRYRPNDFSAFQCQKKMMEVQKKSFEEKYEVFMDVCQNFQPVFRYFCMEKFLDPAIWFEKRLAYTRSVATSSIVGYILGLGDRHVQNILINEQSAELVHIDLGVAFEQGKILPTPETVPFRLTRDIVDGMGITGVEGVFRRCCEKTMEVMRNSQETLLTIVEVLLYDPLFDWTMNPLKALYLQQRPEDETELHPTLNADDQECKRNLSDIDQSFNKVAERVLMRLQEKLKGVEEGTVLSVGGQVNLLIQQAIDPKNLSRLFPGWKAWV
T20 sequence (P45984 whole entry): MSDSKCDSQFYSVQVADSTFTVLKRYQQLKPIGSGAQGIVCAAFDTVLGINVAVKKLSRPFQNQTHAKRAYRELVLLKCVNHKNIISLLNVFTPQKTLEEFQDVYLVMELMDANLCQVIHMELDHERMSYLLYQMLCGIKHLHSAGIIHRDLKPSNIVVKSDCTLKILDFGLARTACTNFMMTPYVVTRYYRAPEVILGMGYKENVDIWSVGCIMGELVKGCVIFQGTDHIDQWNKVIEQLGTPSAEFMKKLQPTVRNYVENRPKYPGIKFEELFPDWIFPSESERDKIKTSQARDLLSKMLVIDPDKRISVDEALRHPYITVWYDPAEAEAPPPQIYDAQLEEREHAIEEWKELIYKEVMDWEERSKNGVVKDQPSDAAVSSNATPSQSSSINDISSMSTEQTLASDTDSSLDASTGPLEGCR
T18 sequence (P54646 whole entry): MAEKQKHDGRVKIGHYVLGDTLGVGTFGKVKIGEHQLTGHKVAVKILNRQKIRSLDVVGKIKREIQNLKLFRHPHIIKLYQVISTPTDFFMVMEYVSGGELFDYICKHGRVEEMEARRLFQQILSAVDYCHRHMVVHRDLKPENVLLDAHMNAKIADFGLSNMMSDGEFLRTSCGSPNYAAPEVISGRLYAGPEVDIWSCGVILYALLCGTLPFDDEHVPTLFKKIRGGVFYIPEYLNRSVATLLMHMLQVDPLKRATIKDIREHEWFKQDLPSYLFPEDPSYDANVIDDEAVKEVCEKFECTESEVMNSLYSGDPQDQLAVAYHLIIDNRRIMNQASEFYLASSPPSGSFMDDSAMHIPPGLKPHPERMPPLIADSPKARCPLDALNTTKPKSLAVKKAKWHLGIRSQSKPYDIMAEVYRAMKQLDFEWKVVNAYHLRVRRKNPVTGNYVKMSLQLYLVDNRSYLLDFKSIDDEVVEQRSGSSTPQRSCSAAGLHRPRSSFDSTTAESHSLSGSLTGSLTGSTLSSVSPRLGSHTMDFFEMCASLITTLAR
T18 sequence (Q9Y478 whole entry partner): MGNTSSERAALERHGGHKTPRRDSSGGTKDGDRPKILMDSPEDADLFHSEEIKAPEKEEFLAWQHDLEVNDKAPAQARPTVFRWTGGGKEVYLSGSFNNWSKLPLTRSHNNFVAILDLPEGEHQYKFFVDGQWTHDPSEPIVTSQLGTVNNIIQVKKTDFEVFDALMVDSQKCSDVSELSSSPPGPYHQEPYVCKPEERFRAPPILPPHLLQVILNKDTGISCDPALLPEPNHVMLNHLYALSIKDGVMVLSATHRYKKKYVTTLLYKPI
T18 sequence (P54619 whole entry partner): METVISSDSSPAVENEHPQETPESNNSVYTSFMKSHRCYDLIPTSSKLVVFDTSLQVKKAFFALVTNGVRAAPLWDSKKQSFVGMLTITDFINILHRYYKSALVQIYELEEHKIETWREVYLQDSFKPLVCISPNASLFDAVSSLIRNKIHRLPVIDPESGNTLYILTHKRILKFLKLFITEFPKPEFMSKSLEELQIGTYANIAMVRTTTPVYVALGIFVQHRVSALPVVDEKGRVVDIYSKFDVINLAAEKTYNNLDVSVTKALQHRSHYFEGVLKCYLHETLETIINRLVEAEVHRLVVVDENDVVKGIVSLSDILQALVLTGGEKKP
T14 sequence (P15056 416-766 V600E limits assumed): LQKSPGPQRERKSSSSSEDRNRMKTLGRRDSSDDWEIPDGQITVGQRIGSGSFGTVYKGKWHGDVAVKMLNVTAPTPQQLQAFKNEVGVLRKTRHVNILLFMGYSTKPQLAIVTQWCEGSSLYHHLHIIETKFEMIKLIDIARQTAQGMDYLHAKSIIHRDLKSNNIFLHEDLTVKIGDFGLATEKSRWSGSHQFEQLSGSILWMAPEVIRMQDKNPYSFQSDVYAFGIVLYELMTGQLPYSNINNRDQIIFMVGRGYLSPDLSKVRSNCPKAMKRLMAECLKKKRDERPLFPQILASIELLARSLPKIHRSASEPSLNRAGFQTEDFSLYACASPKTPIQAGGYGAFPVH

COc1cc2oc(-c3ccc(O)c(O)c3)cc(=O)c2c(O)c1OC [Cirsiliol]
activity at 10 µM (Axl(h)): 97%
activity at 10 µM (MST3(h)): 103%
activity at 10 µM (CaMKIIβ(h)): 104%
activity at 10 µM (CaMKIV(h); 10 µM): 93%
activity at 10 µM (EGFR(L861Q)(h); 10 µM): 108%
activity at 10 µM (CDK1/cyclinB(h)): 97%
activity at 10 µM (MSK2(h)): 108%
activity at 10 µM (MSK1(h)): 106%
activity at 10 µM (c-RAF(h); 10 µM): 104%
activity at 10 µM (cSRC(h)): 133%
activity at 10 µM (GSK3β(h); 10 µM): 115%
activity at 10 µM (PDK1(h)): 107%
activity at 10 µM (PKA(h)): 100%
activity at 10 µM (B-Raf(V599E)(h); 10 µM): 106%

COc1ccc(CCc2cc(OC)c(OC)c(OC)c2)cc1O [Erianin]
toxicity in body weight [1]: low toxicity
tumor growth [1]: restrained tumor growth significantly
kinase activity (luminescence signal) (MEK1): inhibited the kinase activity
kinase activity (luminescence signal) (CRAF): inhibited the kinase activity
kinase activity (luminescence signal) (MEK2): inhibited the kinase activity
constitutive activation of MAPK signaling pathway [2]: inhibited constitutive activation of MAPK signaling pathway
combination index (CI) [3]: ≤ 1
activity at 0.1 µM (PAK3(h)): 99%
activity at 0.1 µM (PDGFRα(h)): 91%
activity at 0.1 µM (AMPKα2(h)): 118%
activity at 0.1 µM (CaMKIV(h)): 91%
activity at 0.1 µM (ROCK-II(h)): 112%
activity at 0.1 µM (JNK2α2(h)): 91%
activity at 0.1 µM (EGFR(L861Q)(h)): 93%
activity at 0.1 µM (FAK(h)): 89%
activity at 0.1 µM (SGK(h)): 122%
activity at 0.1 µM (c-RAF(h)): 85%
activity at 0.1 µM (ROCK-I(h)): 125%
activity at 0.1 µM (GSK3β(h)): 99%
activity at 0.1 µM (PKCα(h)): 89%
activity at 0.1 µM (JAK2(h)): 107%
activity at 0.1 µM (CaMKIIα(h)): 90%
activity at 0.1 µM (ATM(h)): 111%
activity at 0.1 µM (B-Raf(V599E)(h)): 109%

C=C1C(=O)[C@]23[C@H](O)[C@H]1CC[C@H]2[C@@]12CO[C@]3(O)[C@@H](O)[C@@H]1C(C)(C)CC[C@@H]2O [Oridonin]
activity at 10 µM (PAK3(h); 10 µM): 95%
activity at 10 µM (MST3(h)): 74%
activity at 10 µM (PDGFRα(h); 10 µM): 71%
activity at 10 µM (CDK2/cyclinE(h)): 57%
activity at 10 µM (AMPKα2(h); 10 µM): 72%
activity at 10 µM (ROCK-II(h); 10 µM): 88%
activity at 10 µM (JNK2α2(h); 10 µM): 115%
activity at 10 µM (CDK1/cyclinB(h)): 63%
activity at 10 µM (FAK(h); 10 µM): 76%
activity at 10 µM (MSK2(h)): 69%
activity at 10 µM (ErbB2(h)): 112%
activity at 10 µM (MSK1(h)): 93%
activity at 10 µM (cSRC(h)): 59%
activity at 10 µM (ROCK-I(h); 10 µM): 86%
activity at 10 µM (PKCα(h); 10 µM): 69%
activity at 10 µM (JAK2(h); 10 µM): 90%
activity at 10 µM (PDK1(h)): 69%
activity at 10 µM (ATM(h); 10 µM): 71%
activity at 10 µM (PKA(h)): 108%
activity at 10 µM (TAO2(h)): 78%
